Results from article PMC2631555 (Bioorganic & medicinal chemistry letters, 2008).

How the values were obtained:
[1] = Solubility in PBS + 5% DMSO; details: 2 h, room temperature
[2] = tested on: Vero cells; details: read-out: Vero EC50; 48 h exposure, CellTiter-Glo
[3] = PAMPA
[4] = tested on: tubulin; details: 10 µM compound; purified tubulin 7.2 µM, GTP, 37°C, 0.5% DMSO

## COc1cc2c(c(OC)c1OC)-c1ccc(OC)c(=O)cc1[C@@H](NC(C)=O)CC2 [Colchicine]
[1]
  Solubility: highly soluble

## COc1cc2c(c(OC)c1OC)-c1ccc(OC)c(=O)cc1[C@@H](NC(=O)CCCCCNC(=O)COc1ccc(/C=C/C3=[N+]4C(=Cc5ccc(-c6ccc[nH]6)n5[B-]4(F)F)C=C3)cc1)CC2 [colchicine-646]
[2]
  EC50: > 10 µM
[3]
  Permeability: <10 10^-6 cm/s

## CC(=O)O[C@H]1C(=O)[C@@]2(C)[C@H]([C@H](OC(=O)c3ccccc3)[C@]3(O)C[C@H](OC(=O)[C@H](O)[C@@H](NC(=O)c4ccccc4)c4ccccc4)C(C)=C1C3(C)C)[C@]1(OC(C)=O)CO[C@@H]1C[C@@H]2O [paclitaxel]
[4]
  Microtubule formation compared with untreated tubulin: enhanced
